# Measured values published in the kinase profiling compilation of Christmann-Franck et al. (2016).
# Where “and” joins values, the source holds several entries; their conditions need not be identical. Equal values may be shown once.
# Experiments:
# Assay in all cases: radiometric filter-binding kinase assay, Kinase HotSpot
# Conditions in all cases: compound 0.5 µM; ATP 10 µM
# [1] = target: ABL1 (human) (UniProt P00519)
# [2] = target: CAMK4 (human) (UniProt Q16566)
# [3] = target: IRAK4 (human) (UniProt Q9NWZ3)
# [4] = target: NEK6 (human) (UniProt Q9HC98)
# [5] = target: KDR (human) (UniProt P35968)
# [6] = target: PRKCI (human) (UniProt P41743)
# [7] = target: PRKG1 (human) (UniProt Q13976)
# [8] = target: CLK4 (human) (UniProt Q9HAZ1)
# [9] = target: CDK6 CCND3 (human) (UniProt P30281+Q00534)
# [10] = target: TGFBR2 (human) (UniProt P37173)
# [11] = target: STK24 (human) (UniProt Q9Y6E0)
# [12] = target: MAP4K5 (human) (UniProt Q9Y4K4)
# [13] = target: RET (human) (UniProt P07949)
# [14] = target: EGFR (human) (UniProt P00533)
# [15] = target: STK3 (human) (UniProt Q13188)
# [16] = target: MAP3K14 (human) (UniProt Q99558)
# [17] = target: MKNK2 (human) (UniProt Q9HBH9)
# [18] = target: BRSK2 (human) (UniProt Q8IWQ3)
# [19] = target: CDK3 CCNE1 (human) (UniProt Q00526+P24864)
# [20] = target: DAPK3 (human) (UniProt O43293)
# [21] = target: CLK1 (human) (UniProt P49759)
# [22] = target: CDK9 CCNT1 (human) (UniProt P50750+O60563)
# [23] = target: MAP3K5 (human) (UniProt Q99683)
# [24] = target: TSSK1B (human) (UniProt Q9BXA7)
# [25] = target: STK25 (human) (UniProt O00506)
# [26] = target: RAF1 (human) (UniProt P04049)
# [27] = target: CSK (human) (UniProt P41240)
# [28] = target: CLK3 (human) (UniProt P49761)
# [29] = target: CSNK1A1 (human) (UniProt P48729)
# [30] = target: CSNK1G3 (human) (UniProt Q9Y6M4)
# [31] = target: PIM1 (human) (UniProt P11309)
# [32] = target: VRK1 (human) (UniProt Q99986)
# [33] = target: CDK1 CCNA2 (human) (UniProt P06493+P20248)
# [34] = target: BRSK1 (human) (UniProt Q8TDC3)
# [35] = target: MARK2 (human) (UniProt Q7KZI7)
# [36] = target: DYRK1A (human) (UniProt Q13627)
# [37] = target: EPHA6 (human) (UniProt Q9UF33)
# [38] = target: EPHB3 (human) (UniProt P54753)
# [39] = target: GRK7 (human) (UniProt Q8WTQ7)
# [40] = target: ACVRL1 (human) (UniProt P37023)
# [41] = target: PRKX (human) (UniProt P51817)
# [42] = target: MARK3 (human) (UniProt P27448)
# Chain of IRAK4 (human) (Q9NWZ3 whole entry, looked up): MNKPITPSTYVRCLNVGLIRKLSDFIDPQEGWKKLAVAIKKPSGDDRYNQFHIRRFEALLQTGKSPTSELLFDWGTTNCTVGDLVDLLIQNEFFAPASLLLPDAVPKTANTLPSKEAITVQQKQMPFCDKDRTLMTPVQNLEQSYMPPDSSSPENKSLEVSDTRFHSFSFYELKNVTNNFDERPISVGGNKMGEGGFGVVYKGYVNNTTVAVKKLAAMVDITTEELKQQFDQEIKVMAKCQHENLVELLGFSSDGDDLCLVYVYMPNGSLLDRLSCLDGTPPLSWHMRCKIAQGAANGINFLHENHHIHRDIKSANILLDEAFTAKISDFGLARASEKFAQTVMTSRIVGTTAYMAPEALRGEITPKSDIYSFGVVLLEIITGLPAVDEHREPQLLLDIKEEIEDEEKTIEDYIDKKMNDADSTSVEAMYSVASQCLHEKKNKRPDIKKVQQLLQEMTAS
# Chain of MAP3K14 (human) (Q99558 whole entry, looked up): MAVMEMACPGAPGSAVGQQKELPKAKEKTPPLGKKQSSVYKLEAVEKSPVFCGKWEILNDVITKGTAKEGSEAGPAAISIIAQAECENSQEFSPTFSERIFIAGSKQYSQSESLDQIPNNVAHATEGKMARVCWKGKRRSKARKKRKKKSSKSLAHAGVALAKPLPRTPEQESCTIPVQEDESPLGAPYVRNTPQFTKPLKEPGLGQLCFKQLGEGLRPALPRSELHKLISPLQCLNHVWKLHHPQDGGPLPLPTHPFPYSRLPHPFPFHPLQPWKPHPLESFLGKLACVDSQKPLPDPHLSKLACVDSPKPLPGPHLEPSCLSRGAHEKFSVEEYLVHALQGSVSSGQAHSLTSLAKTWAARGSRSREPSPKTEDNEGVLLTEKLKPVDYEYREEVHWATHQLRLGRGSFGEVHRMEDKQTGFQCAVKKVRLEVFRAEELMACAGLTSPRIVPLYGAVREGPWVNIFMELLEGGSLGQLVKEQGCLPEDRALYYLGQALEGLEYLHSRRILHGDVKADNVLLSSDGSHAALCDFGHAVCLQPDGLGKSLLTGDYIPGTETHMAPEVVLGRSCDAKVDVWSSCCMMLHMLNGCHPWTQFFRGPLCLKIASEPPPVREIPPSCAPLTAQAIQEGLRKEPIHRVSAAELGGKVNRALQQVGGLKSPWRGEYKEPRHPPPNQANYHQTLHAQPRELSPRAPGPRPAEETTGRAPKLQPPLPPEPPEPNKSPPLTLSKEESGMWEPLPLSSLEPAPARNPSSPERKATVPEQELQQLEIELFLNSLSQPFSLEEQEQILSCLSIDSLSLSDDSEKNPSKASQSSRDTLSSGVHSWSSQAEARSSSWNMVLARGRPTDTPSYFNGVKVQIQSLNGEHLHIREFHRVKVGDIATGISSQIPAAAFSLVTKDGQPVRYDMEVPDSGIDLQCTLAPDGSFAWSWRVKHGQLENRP
# Chain of EPHA6 (human) (Q9UF33 whole entry, looked up): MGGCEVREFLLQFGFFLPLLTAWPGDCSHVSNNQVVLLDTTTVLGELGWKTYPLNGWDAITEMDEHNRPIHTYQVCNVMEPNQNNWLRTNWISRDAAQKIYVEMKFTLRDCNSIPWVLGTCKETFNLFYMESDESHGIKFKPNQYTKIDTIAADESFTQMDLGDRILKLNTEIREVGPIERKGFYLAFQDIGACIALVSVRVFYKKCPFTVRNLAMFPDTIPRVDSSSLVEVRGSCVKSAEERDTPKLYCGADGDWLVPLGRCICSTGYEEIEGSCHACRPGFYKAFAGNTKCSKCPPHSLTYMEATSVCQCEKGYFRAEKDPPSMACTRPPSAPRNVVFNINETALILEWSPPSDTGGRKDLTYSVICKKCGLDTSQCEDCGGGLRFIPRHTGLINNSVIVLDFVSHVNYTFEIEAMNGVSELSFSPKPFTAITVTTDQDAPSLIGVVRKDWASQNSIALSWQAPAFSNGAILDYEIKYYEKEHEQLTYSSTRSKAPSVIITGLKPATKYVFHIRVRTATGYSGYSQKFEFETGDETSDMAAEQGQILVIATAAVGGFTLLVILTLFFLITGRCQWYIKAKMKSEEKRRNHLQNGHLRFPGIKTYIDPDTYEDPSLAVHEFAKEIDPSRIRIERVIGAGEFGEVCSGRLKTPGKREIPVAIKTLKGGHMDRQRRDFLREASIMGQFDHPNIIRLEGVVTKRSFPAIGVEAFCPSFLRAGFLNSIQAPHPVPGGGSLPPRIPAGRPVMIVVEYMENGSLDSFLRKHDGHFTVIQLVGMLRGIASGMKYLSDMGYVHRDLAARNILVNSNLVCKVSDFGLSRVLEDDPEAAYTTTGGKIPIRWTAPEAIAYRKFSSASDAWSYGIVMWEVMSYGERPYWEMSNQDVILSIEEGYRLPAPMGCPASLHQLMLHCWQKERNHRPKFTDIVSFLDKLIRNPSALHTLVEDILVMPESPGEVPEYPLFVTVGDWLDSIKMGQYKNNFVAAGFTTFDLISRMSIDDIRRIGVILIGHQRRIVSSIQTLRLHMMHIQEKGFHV
# Chain of CDK6 CCND3 (human) (P30281 whole entry, looked up): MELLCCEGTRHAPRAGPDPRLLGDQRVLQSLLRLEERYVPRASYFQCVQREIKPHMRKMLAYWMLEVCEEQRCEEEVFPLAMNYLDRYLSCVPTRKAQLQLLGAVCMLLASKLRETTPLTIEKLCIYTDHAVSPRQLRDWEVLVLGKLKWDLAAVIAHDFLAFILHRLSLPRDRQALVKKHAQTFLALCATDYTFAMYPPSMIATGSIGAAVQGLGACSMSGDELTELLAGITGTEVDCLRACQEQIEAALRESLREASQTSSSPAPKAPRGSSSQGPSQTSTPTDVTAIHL
# Chain of CDK6 CCND3 (human) (Q00534 whole entry, looked up): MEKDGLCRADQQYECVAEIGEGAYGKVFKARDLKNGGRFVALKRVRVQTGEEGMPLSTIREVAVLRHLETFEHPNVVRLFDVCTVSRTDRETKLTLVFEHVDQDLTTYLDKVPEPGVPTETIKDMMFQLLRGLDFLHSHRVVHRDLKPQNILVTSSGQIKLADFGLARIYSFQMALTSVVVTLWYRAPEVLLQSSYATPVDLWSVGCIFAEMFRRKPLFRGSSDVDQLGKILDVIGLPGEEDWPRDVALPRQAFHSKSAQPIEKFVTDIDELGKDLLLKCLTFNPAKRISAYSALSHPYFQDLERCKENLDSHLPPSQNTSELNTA
# Chain of RET (human) (P07949 whole entry, looked up): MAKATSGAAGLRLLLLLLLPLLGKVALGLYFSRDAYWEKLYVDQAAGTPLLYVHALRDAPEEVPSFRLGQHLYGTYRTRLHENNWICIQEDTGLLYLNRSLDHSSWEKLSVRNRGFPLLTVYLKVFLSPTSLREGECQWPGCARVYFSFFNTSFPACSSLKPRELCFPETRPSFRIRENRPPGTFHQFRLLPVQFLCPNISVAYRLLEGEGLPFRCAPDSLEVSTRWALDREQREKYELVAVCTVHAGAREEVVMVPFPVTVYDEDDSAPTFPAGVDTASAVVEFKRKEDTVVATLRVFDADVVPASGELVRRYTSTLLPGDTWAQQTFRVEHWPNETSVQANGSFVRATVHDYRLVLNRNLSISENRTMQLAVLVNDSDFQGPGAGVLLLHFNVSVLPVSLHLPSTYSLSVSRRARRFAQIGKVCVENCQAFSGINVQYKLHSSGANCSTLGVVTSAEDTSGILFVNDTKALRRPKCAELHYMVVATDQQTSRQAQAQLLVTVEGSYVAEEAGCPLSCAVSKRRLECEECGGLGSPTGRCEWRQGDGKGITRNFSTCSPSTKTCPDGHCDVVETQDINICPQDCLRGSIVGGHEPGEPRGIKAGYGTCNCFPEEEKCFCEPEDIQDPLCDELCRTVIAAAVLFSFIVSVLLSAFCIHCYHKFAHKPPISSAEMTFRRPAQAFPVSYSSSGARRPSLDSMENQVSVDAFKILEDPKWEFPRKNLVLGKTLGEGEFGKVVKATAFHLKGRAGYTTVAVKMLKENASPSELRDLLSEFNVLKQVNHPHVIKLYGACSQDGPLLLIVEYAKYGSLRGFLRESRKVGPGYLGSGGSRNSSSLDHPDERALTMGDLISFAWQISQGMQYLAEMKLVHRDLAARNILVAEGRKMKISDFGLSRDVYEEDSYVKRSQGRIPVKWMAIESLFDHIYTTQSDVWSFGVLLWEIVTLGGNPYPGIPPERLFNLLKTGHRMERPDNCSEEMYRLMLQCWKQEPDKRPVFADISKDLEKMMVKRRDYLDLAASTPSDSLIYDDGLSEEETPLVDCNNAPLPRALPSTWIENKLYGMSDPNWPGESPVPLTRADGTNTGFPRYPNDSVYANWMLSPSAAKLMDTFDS
# Chain of CSNK1G3 (human) (Q9Y6M4 whole entry, looked up): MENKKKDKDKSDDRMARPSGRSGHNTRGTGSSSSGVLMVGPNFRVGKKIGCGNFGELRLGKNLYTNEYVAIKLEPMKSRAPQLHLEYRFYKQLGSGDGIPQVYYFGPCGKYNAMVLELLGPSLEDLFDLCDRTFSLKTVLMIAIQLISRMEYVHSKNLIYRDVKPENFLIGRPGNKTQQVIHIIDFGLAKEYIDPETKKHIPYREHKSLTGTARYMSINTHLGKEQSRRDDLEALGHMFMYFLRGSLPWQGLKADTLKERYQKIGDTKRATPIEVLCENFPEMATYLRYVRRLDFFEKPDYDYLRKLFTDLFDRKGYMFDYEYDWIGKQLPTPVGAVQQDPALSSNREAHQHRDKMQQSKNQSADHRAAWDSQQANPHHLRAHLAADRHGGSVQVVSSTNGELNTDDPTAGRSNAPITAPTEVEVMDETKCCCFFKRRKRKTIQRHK
# Chain of CSNK1A1 (human) (P48729 whole entry, looked up): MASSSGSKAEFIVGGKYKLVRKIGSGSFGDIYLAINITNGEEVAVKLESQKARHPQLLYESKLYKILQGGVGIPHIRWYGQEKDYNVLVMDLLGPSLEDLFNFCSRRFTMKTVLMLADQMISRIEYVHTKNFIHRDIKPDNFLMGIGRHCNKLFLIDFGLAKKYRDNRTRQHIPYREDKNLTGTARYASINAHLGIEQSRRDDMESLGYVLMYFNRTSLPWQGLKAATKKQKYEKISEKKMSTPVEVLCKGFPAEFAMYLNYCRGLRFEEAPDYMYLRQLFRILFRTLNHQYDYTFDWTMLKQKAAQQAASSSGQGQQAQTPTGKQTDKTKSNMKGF
smiles,measurement,setting,value
CC(C)N(CCC(=O)c1ccc2ccccc2c1)Cc1ccccc1,residual activity,[1],101%
same,residual activity,[2],98.3%
same,residual activity,[3],103%
same,residual activity,[4],109%
same,residual activity,[5],98.9%
same,residual activity,[6],97.1%
same,residual activity,[7],101% and 102%
same,residual activity,[8],91.7%
same,residual activity,[9],102%
same,residual activity,[10],98.8%
same,residual activity,[11],96.6%
same,residual activity,[12],90.2%
same,residual activity,[13],101%
same,residual activity,[14],99.4%
same,residual activity,[15],102%
same,residual activity,[16],117%
same,residual activity,[17],100%
same,residual activity,[18],103%
same,residual activity,[19],91.4%
same,residual activity,[20],107%
same,residual activity,[21],109%
same,residual activity,[22],96.4%
same,residual activity,[23],103%
same,residual activity,[24],100%
same,residual activity,[25],94%
same,residual activity,[26],87.3%
same,residual activity,[27],88.5%
same,residual activity,[28],99.6%
same,residual activity,[29],88.4%
same,residual activity,[30],99%
same,residual activity,[31],100%
same,residual activity,[32],95.8%
same,residual activity,[33],92.9%
same,residual activity,[34],98%
same,residual activity,[35],97.9%
same,residual activity,[36],105%
same,residual activity,[37],93.3%
same,residual activity,[38],88.5%
same,residual activity,[39],121%
same,residual activity,[40],107%
same,residual activity,[41],99.6%
same,residual activity,[42],101%
CCN(CC)CCNC(=O)c1c(C)[nH]c(/C=C2\C(=O)Nc3ccc(Cl)cc32)c1C,residual activity,[1],24.7%
same,residual activity,[2],95%
same,residual activity,[3],22.7%
same,residual activity,[4],97.8%
same,residual activity,[5],13.8%
same,residual activity,[6],91.9%
same,residual activity,[7],64.2% and 76.4%
same,residual activity,[8],16.8%
same,residual activity,[9],41.6%
same,residual activity,[10],113%
same,residual activity,[11],22.2%
same,residual activity,[12],0.833%
same,residual activity,[13],2.47%
same,residual activity,[14],97%
same,residual activity,[15],16.9%
same,residual activity,[16],118%
same,residual activity,[17],88.8%
same,residual activity,[18],53.7%
same,residual activity,[19],88.3%
same,residual activity,[20],54.3%
same,residual activity,[21],34.2%
same,residual activity,[22],58.8%
same,residual activity,[23],98.1%
same,residual activity,[24],8.45%
same,residual activity,[25],56.1%
same,residual activity,[26],117%
same,residual activity,[27],86.3%
same,residual activity,[28],101%
same,residual activity,[29],75.7%
same,residual activity,[30],47.7%
same,residual activity,[31],91.7%
same,residual activity,[32],90.7%
same,residual activity,[33],87.5%
same,residual activity,[34],36.5%
same,residual activity,[35],9.74%
same,residual activity,[36],47.2%
same,residual activity,[37],45.7%
same,residual activity,[38],100%
same,residual activity,[39],62.2%
same,residual activity,[40],89%
same,residual activity,[41],83.9%
same,residual activity,[42],7.86%
CO[C@H]1CC2CC[C@@H](C)[C@@](O)(O2)C(=O)C(=O)N2CCCC[C@H]2C(=O)OC([C@H](C)C[C@@H]2CC[C@@H](O)[C@H](OC)C2)CC(=O)[C@H](C)/C=C(\C)[C@@H](O)[C@@H](OC)C(=O)[C@H](C)C[C@H](C)/C=C/C=C/C=C/1C (stereo partly drawn),residual activity,[1],103%
same,residual activity,[2],99.1%
same,residual activity,[3],123%
same,residual activity,[4],97.7%
same,residual activity,[5],98.1%
same,residual activity,[6],99.1%
same,residual activity,[7],91%
same,residual activity,[8],116%
same,residual activity,[9],105%
same,residual activity,[10],136%
same,residual activity,[11],93.5%
same,residual activity,[12],110%
same,residual activity,[13],98.7%
same,residual activity,[14],93.3%
same,residual activity,[15],105%
same,residual activity,[16],105%
same,residual activity,[17],88.1%
same,residual activity,[18],109%
same,residual activity,[19],102%
same,residual activity,[20],104%
same,residual activity,[21],107%
same,residual activity,[22],87%
same,residual activity,[23],107%
same,residual activity,[24],103%
same,residual activity,[25],129%
same,residual activity,[26],97.2%
same,residual activity,[27],101%
same,residual activity,[28],94.4%
same,residual activity,[29],99.3%
same,residual activity,[30],108%
same,residual activity,[31],104%
same,residual activity,[32],108%
same,residual activity,[33],91.9%
same,residual activity,[34],99.9%
same,residual activity,[35],104%
same,residual activity,[36],94.3%
same,residual activity,[37],99%
same,residual activity,[38],103%
same,residual activity,[39],98%
same,residual activity,[40],97.9%
same,residual activity,[41],95.6%
same,residual activity,[42],99%
O=C1NC(=O)c2c1c1c3ccccc3n3c1c1c2c2ccccc2n1C1CCC3O1,residual activity,[1],72.7%
same,residual activity,[2],98.7%
same,residual activity,[3],14%
same,residual activity,[4],93.1%
same,residual activity,[5],4.55%
same,residual activity,[6],86.4%
same,residual activity,[7],35.7% and 41.3%
same,residual activity,[8],20.3%
same,residual activity,[9],19.9%
same,residual activity,[10],70.3%
same,residual activity,[11],14.3%
same,residual activity,[12],2.69%
same,residual activity,[13],3.21%
same,residual activity,[14],78.3%
same,residual activity,[15],3.22%
same,residual activity,[16],134%
same,residual activity,[17],9.71%
same,residual activity,[18],13.6%
same,residual activity,[19],71.5%
same,residual activity,[20],24.6%
same,residual activity,[21],43.1%
same,residual activity,[22],8.52%
same,residual activity,[23],56.2%
same,residual activity,[24],17.7%
same,residual activity,[25],34.4%
same,residual activity,[26],121%
same,residual activity,[27],79.7%
same,residual activity,[28],97%
same,residual activity,[29],104%
same,residual activity,[30],108%
same,residual activity,[31],0.435%
same,residual activity,[32],90.2%
same,residual activity,[33],61.7%
same,residual activity,[34],14.8%
same,residual activity,[35],4.88%
same,residual activity,[36],8.74%
same,residual activity,[37],63.9%
same,residual activity,[38],93.2%
same,residual activity,[39],53.4%
same,residual activity,[40],78.6%
same,residual activity,[41],17.5%
same,residual activity,[42],8.53%
